Measured values reported in PubChem BioAssay AID651650 (Sanford-Burnham Center for Chemical Genomics, 2012).
pIC50: −log10 of the molar value. Calls of active or inactive are those of the source.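 The calls were made as follows: active = mean IC50 below 20 µM in each of the two panels, so potent in both; inactive = the rest.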

Molecular target: Neuropilin-1 (Homo sapiens) (UniProt O14786)
Experiment: blockers of CendR peptide binding to NRP-1 – biochemical, FP and AlphaScreen panel, dose response (AID 651650)
Conditions: NRP-1 b1b2 / RPARPAR peptide binding, FP or AlphaScreen
[1] = AlphaScreen, run 1, individual panel run IC50
[2] = FP, run 1, individual panel run IC50
[3] = FP, run 2, individual panel run IC50

Chain of Neuropilin-1 (Homo sapiens) (O14786 whole entry, looked up): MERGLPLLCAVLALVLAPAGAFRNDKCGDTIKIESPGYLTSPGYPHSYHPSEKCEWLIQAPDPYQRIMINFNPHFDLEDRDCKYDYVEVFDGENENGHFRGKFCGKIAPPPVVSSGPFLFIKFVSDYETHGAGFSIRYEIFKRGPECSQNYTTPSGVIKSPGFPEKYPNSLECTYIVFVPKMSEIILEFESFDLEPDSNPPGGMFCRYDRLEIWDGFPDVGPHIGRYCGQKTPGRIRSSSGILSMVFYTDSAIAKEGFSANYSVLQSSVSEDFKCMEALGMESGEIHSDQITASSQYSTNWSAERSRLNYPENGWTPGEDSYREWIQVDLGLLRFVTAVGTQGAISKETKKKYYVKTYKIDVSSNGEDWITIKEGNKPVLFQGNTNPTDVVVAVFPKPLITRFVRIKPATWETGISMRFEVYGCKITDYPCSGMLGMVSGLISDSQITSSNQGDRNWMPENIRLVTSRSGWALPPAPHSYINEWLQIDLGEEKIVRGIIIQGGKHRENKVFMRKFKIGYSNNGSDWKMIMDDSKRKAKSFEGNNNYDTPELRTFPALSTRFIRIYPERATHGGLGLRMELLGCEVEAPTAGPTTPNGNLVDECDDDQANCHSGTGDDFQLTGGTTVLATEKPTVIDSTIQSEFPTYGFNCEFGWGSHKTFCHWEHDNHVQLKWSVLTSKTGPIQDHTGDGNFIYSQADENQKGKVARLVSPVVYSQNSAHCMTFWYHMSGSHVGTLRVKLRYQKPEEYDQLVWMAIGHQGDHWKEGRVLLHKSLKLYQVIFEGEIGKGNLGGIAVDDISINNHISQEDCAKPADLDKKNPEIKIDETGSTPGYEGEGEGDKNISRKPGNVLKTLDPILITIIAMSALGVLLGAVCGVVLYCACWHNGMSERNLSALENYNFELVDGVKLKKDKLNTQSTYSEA

SMILES | IC50 (AlphaScreen, mean of runs) | pIC50 [1] | IC50 (FP, mean of runs) | pIC50 [2] | pIC50 [3] | pIC50 (AlphaScreen, mean of runs)
CC(C)(C)OC(=O)N1CCC(NC(=O)c2nc[nH]c2C(=O)N2CCc3ccccc3C2)CC1 | > 100 µM (inactive) | < 4.00 | > 95 µM (inactive) | < 4.02 | < 4.02 | –
COc1cc(C(=O)OCC(=O)Nc2c(F)c(F)c(F)c(F)c2F)cc(OC)c1OC | > 100 µM (inactive) | < 4.00 | > 95 µM (inactive) | < 4.02 | < 4.02 | –
CCC1Nc2ncnc(N3CCCCC3)c2N(Cc2ccc(C)cc2)C1=O (stereo not given) | > 100 µM (inactive) | < 4.00 | > 95 µM (inactive) | < 4.02 | < 4.02 | –
COC(=O)c1ccn(C(=O)c2ccc(Cl)cc2)n1 | > 100 µM (inactive) | < 4.00 | > 95 µM (inactive) | < 4.02 | < 4.02 | –
COc1ccc(NC(=O)CN2CCN(c3c(C)cc(C)cc3C)CC2)cc1 | > 100 µM (inactive) | < 4.00 | > 95 µM (inactive) | < 4.02 | < 4.02 | –
CCCCOc1ccc(C(=O)N/C(=C/C=C/c2ccccc2)C(=O)NCCCO)cc1 | > 100 µM (inactive) | < 4.00 | > 95 µM (inactive) | < 4.02 | < 4.02 | –
CCC1C2Cc3ccc(O)cc3C1(CC)CCN2C (stereo not given) | > 100 µM (inactive) | < 4.00 | > 95 µM (inactive) | < 4.02 | < 4.02 | –
CCC(=O)Nc1cc2c3c(c1)CCC(=O)N3CCC2 | – | 4.86 | > 95 µM (inactive) | < 4.02 | < 4.02 | 4.86
COC(=O)C1=C(C)NC(C)=C(C(=O)OC)C1C(=O)OC(C)C(=O)c1ccccc1 (stereo not given) | > 100 µM (inactive) | < 4.00 | > 95 µM (inactive) | < 4.02 | < 4.02 | –
COc1ccc(Nc2nc(-c3cccnc3)nc3ccccc23)cn1 | inactive | 4.26 | > 95 µM (inactive) | < 4.02 | < 4.02 | –
CCN(CC)C(=O)c1cccc(-c2csc(C(NC(C)=O)c3cccc(OC)c3)n2)c1 (stereo not given) | > 100 µM (inactive) | < 4.00 | > 95 µM (inactive) | < 4.02 | < 4.02 | –
COc1ccc(Cn2c3ccc(OC)cc3c3nc4ccccc4nc32)cc1 | inactive | 4.41 | > 95 µM (inactive) | < 4.02 | < 4.02 | –
Cc1cc(C)cc(N(CCC(=O)O)S(=O)(=O)c2ccc3ccccc3c2)c1 | > 100 µM (inactive) | < 4.00 | > 95 µM (inactive) | < 4.02 | < 4.02 | –
O=[N+]([O-])c1ccc(Cc2ccncc2)cc1 | > 100 µM (inactive) | < 4.00 | > 95 µM (inactive) | < 4.02 | < 4.02 | –
CCn1c(=O)c(C(=O)NCCNCCO)c(O)c2ccccc21 | > 100 µM (inactive) | < 4.00 | > 95 µM (inactive) | < 4.02 | < 4.02 | –
CCOC(=O)C(NC(=O)CC(C)C)(Nc1sc(C)c(CC)c1C#N)C(F)(F)F (stereo not given) | > 100 µM (inactive) | < 4.00 | > 95 µM (inactive) | < 4.02 | < 4.02 | –
O=C(CSc1nc(O)c(Cc2ccccc2)c(=O)n1-c1ccccc1)N1CCOCC1 | > 100 µM (inactive) | < 4.00 | > 95 µM (inactive) | < 4.02 | < 4.02 | –
Cn1c(SCc2nc3ccccc3s2)nnc1-c1cccs1 | inactive | 4.33 | > 95 µM (inactive) | < 4.02 | < 4.02 | –
CC(=O)c1cccc(S(=O)(=O)N2CCC(C(=O)O)(c3ccccc3)CC2)c1 | > 100 µM (inactive) | < 4.00 | > 95 µM (inactive) | < 4.02 | < 4.02 | –
CCN1C(=O)C(=O)c2cc(C)ccc21 | > 100 µM (inactive) | < 4.00 | > 95 µM (inactive) | < 4.02 | < 4.02 | –
COc1cc2oc(=O)ccc2cc1[C@@H](O)[C@@H]1OC(C)(C)OC1(C)C | > 100 µM (inactive) | < 4.00 | > 95 µM (inactive) | < 4.02 | < 4.02 | –
CC(C(=O)N1CCN(c2ccc(Cl)cc2)CC1)c1ncc(C(F)(F)F)cc1Cl (stereo not given) | > 100 µM (inactive) | < 4.00 | > 95 µM (inactive) | < 4.02 | < 4.02 | –
Cc1cnccc1CNC(=O)CC1C(=O)NCCN1CC(C)(C)C (stereo not given) | > 100 µM (inactive) | < 4.00 | > 95 µM (inactive) | < 4.02 | < 4.02 | –

SMILES | IC50 (AlphaScreen, mean of runs) | pIC50 [1] | IC50 (FP, mean of runs) | pIC50 [2] | pIC50 [3] | pIC50 (AlphaScreen, mean of runs)
Cc1ccccc1OCC1Cc2c(nc(N)c(C#N)c2N)O1 (stereo not given) | > 100 µM (inactive) | < 4.00 | > 95 µM (inactive) | < 4.02 | < 4.02 | –
C=CCOc1ccc(C2/C(=C(\O)c3c(C)[nH]c(C(=O)OC)c3C)C(=O)C(=O)N2CCN(C)C)cc1 (stereo not given) | > 100 µM (inactive) | < 4.00 | > 95 µM (inactive) | < 4.02 | < 4.02 | –
O=C1c2cc([N+](=O)[O-])cc3cc([N+](=O)[O-])cc(c23)C(=O)N1c1ccccn1 | > 100 µM (inactive) | < 4.00 | > 95 µM (inactive) | < 4.02 | < 4.02 | –
Cc1ccccc1Nc1cc(=O)oc2ccccc12 | > 100 µM (inactive) | < 4.00 | > 95 µM (inactive) | < 4.02 | < 4.02 | –
CCOc1c2ccc(C(=O)NCCc3cccs3)cc2nn1CC | > 100 µM (inactive) | < 4.00 | > 95 µM (inactive) | < 4.02 | < 4.02 | –
CCNS(=O)(=O)c1ccc(CCC(=O)O)cc1 | > 100 µM (inactive) | < 4.00 | > 95 µM (inactive) | < 4.02 | < 4.02 | –
COc1ccc(OCC(=O)O/N=C(\N)Cc2ccc(Cl)cc2Cl)cc1 | inactive | 4.26 | > 95 µM (inactive) | < 4.02 | < 4.02 | –
O=C(O)CSc1nnc(-c2ccc(Cl)cc2Cl)n1-c1ccc(Cl)cc1 | inactive | 4.40 | inactive | < 4.02 | 4.46 | –
Oc1ccc(-c2nc3ncccn3c2Nc2ccc3c(c2)OCO3)cc1 | > 100 µM (inactive) | < 4.00 | > 95 µM (inactive) | < 4.02 | < 4.02 | –
COc1ccc(S(=O)(=O)N2CCCCC2)cc1NC(=O)c1c(F)cccc1Cl | > 100 µM (inactive) | < 4.00 | > 95 µM (inactive) | < 4.02 | < 4.02 | –
Cc1ccc(S(=O)(=O)NCC(=O)N(c2ccccc2)C(C(=O)NCc2ccccc2)c2ccco2)cc1 (stereo not given) | > 100 µM (inactive) | < 4.00 | > 95 µM (inactive) | < 4.02 | < 4.02 | –
COc1ccc(-c2[nH]ncc2CN(C)CCc2c(C)n[nH]c2C)c(F)c1 | > 100 µM (inactive) | < 4.00 | > 95 µM (inactive) | < 4.02 | < 4.02 | –
CC(C)(C)C(=O)c1cnc(Nc2ccccc2)s1 | > 100 µM (inactive) | < 4.00 | > 95 µM (inactive) | < 4.02 | < 4.02 | –
CCCS(=O)(=O)N1CCC(C(=O)NC2CCCC(C)C2C)CC1 (stereo not given) | – | 4.76 | > 95 µM (inactive) | < 4.02 | < 4.02 | 4.76
COc1ccc(C(O)c2nc(-c3ccc4ccccc4c3)cs2)cc1 (stereo not given) | > 100 µM (inactive) | < 4.00 | > 95 µM (inactive) | < 4.02 | < 4.02 | –
O=C(Cn1cccc1C(=O)c1ccccc1)NCCC1=CCCCC1 | – | 5.15 | > 95 µM (inactive) | < 4.02 | < 4.02 | 5.15
CC(=O)c1ccc(OCC(=O)Nc2nnc(C3CC3)s2)cc1 | > 100 µM (inactive) | < 4.00 | > 95 µM (inactive) | < 4.02 | < 4.02 | –
CC(=O)Nc1ccc(Oc2cc(C#N)c(C#N)cc2N2CCOCC2)cc1 | > 100 µM (inactive) | < 4.00 | > 95 µM (inactive) | < 4.02 | < 4.02 | –
O=C(COc1ccc(S(=O)(=O)N2CCCC2)cc1)Nc1ccc2c(c1)OCCO2 | > 100 µM (inactive) | < 4.00 | > 95 µM (inactive) | < 4.02 | < 4.02 | –
Cc1ccccc1-c1cnc(C(O)c2ccc(F)c(F)c2)[nH]1 (stereo not given) | > 100 µM (inactive) | < 4.00 | > 95 µM (inactive) | < 4.02 | < 4.02 | –
Cc1cc(N/C(=N/S(=O)(=O)c2cc(F)ccc2F)c2ccccc2)n(-c2ccccc2)n1 | > 100 µM (inactive) | < 4.00 | > 95 µM (inactive) | < 4.02 | < 4.02 | –
COc1ccc(CN2C(=O)c3ccccc3C2=O)cc1C(=O)Nc1ccccc1N1CCOCC1 | > 100 µM (inactive) | < 4.00 | > 95 µM (inactive) | < 4.02 | < 4.02 | –
